Measured values taken from PubChem BioAssay (NCI).
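Five concentrations, 48 hours, 96-well plates. GI50 marks 50% less growth. TGI denotes the concentration required for complete inhibition of growth.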

Tests used:
Test in all cases: growth of human tumour cells (NCI), 48 h
[1] = test system: SF-539 CNS
[2] = test system: UACC-62 melanoma
[3] = test system: ACHN renal
[4] = test system: CAKI-1 renal
[5] = test system: M14 melanoma
[6] = test system: HL-60(TB) leukemia
[7] = test system: SNB-19 CNS
[8] = test system: SK-OV-3 ovarian
[9] = test system: MOLT-4 leukemia
[10] = test system: KM12 colon
[11] = test system: SR leukemia
[12] = test system: K-562 leukemia
[13] = test system: MDA-MB-435
[14] = test system: DU-145 prostate
[15] = test system: LOX IMVI melanoma
[16] = test system: IGROV1 ovarian
[17] = test system: NCI/ADR-RES ovarian
[18] = test system: HCC-2998 colon
[19] = test system: HT29 colon
[20] = test system: SK-MEL-2 melanoma
[21] = test system: OVCAR-5 ovarian
[22] = test system: HOP-92 NSCLC
[23] = test system: A498 renal
[24] = test system: SK-MEL-28 melanoma
[25] = test system: BT-549 breast
[26] = test system: OVCAR-8 ovarian
[27] = test system: HOP-62 NSCLC
[28] = test system: A549 NSCLC
[29] = test system: OVCAR-4 ovarian
[30] = test system: MDA-MB-468 breast
[31] = test system: NCI-H460 lung
[32] = test system: UO-31 renal
[33] = test system: RPMI-8226 leukemia
[34] = test system: NCI-H23 lung
[35] = test system: NCI-H522 lung
[36] = test system: OVCAR-3 ovarian
[37] = test system: NCI-H226 lung
[38] = test system: SW-620 colon
[39] = test system: EKVX NSCLC
[40] = test system: SK-MEL-5 melanoma
[41] = test system: PC-3 prostate
[42] = test system: SF-295 CNS
[43] = test system: MCF7 breast
[44] = test system: TK-10 renal
[45] = test system: UACC-257 melanoma
[46] = test system: HCT-15 colon
[47] = test system: SF-268 CNS
[48] = test system: CCRF-CEM leukemia
[49] = test system: MDA-MB-231 breast
[50] = test system: SN12C renal
[51] = test system: U251 CNS
[52] = test system: MALME-3M melanoma
[53] = test system: SNB-75 CNS
[54] = test system: HS 578T breast
[55] = test system: 786-0 renal
[56] = test system: COLO 205 colon
[57] = test system: RXF 393 renal
[58] = test system: HCT-116 colon
[59] = test system: T-47D breast

COc1ccc(Nc2nc(N)n(Cc3cccc(Br)c3)n2)cc1
GI50 [1]: 29.6 µM | TGI [1]: > 100 µM | GI50 [2]: 32.8 µM | TGI [2]: > 100 µM | GI50 [3]: 29.7 µM | TGI [3]: > 100 µM | GI50 [4]: 15 µM | TGI [4]: > 100 µM | GI50 [5]: 36.8 µM | TGI [5]: > 100 µM | GI50 [6]: 18.4 µM | TGI [6]: > 100 µM | GI50 [7]: 48.3 µM | TGI [7]: > 100 µM | GI50 [8]: 93.2 µM | TGI [8]: > 100 µM | GI50 [9]: 26.9 µM | TGI [9]: > 100 µM | GI50 [10]: 26.7 µM | TGI [10]: > 100 µM | GI50 [11]: 91.7 µM | TGI [11]: > 100 µM | GI50 [12]: 28.7 µM | TGI [12]: > 100 µM | GI50 [13]: 32.8 µM | TGI [13]: > 100 µM | GI50 [14]: 65.6 µM | TGI [14]: > 100 µM | GI50 [15]: 31.5 µM | TGI [15]: > 100 µM | GI50 [16]: 26.1 µM | TGI [16]: > 100 µM | GI50 [17]: 33.3 µM | TGI [17]: > 100 µM | GI50 [18]: 34.3 µM | TGI [18]: > 100 µM | GI50 [19]: 64.2 µM | TGI [19]: > 100 µM | GI50 [20]: 31.1 µM | TGI [20]: > 100 µM | GI50 [21]: 50.3 µM | TGI [21]: > 100 µM | GI50 [22]: 11.4 µM | TGI [22]: 68.4 µM | GI50 [23]: 15.9 µM | TGI [23]: 76.4 µM | GI50 [24]: 35.7 µM | TGI [24]: > 100 µM | GI50 [25]: 14.5 µM | TGI [25]: > 100 µM | GI50 [26]: 42.1 µM | TGI [26]: > 100 µM | GI50 [27]: > 100 µM | TGI [27]: > 100 µM | GI50 [28]: 36 µM | TGI [28]: > 100 µM | GI50 [29]: 31.7 µM | TGI [29]: > 100 µM | GI50 [30]: 19.3 µM | TGI [30]: 65.5 µM | GI50 [31]: 36.2 µM | TGI [31]: > 100 µM | GI50 [32]: 17 µM | TGI [32]: > 100 µM | GI50 [33]: 29.5 µM | TGI [33]: > 100 µM | GI50 [34]: 32.7 µM | TGI [34]: > 100 µM | GI50 [35]: 26.5 µM | TGI [35]: > 100 µM | GI50 [36]: 35.8 µM | TGI [36]: > 100 µM | GI50 [37]: 27.2 µM | TGI [37]: > 100 µM | GI50 [38]: 57.5 µM | TGI [38]: > 100 µM | GI50 [39]: 18 µM | TGI [39]: > 100 µM | GI50 [40]: 19.5 µM | TGI [40]: 44 µM | GI50 [41]: 25.9 µM | TGI [41]: > 100 µM | GI50 [42]: 28 µM | TGI [42]: > 100 µM | GI50 [43]: 26 µM | TGI [43]: > 100 µM | GI50 [44]: 61.7 µM | TGI [44]: > 100 µM | GI50 [45]: 38.3 µM | TGI [45]: > 100 µM | GI50 [46]: 30.8 µM | TGI [46]: > 100 µM | GI50 [47]: 27.2 µM | TGI [47]: > 100 µM | GI50 [48]: 26.3 µM | TGI [48]: > 100 µM | GI50 [49]: 37.1 µM | TGI [49]: > 100 µM | GI50 [50]: 33.4 µM | TGI [50]: > 100 µM | GI50 [51]: 42.1 µM | TGI [51]: > 100 µM | GI50 [52]: 27.2 µM | TGI [52]: > 100 µM | GI50 [53]: 13.9 µM | TGI [53]: > 100 µM | GI50 [54]: 15.4 µM | TGI [54]: > 100 µM | GI50 [55]: 34.3 µM | TGI [55]: > 100 µM | GI50 [56]: 48.4 µM | TGI [56]: > 100 µM | GI50 [57]: 14.3 µM | TGI [57]: 66 µM | GI50 [58]: 27.5 µM | TGI [58]: > 100 µM | GI50 [59]: 44.5 µM | TGI [59]: > 100 µM
